# Data from EP0595557A1, “New substituted azetidinones as anti-inflammatory and antidegenerative agents” (MERCK & CO. INC., priority 1992, dated 1994).
# Molecular target: T1, Human Polymorphonuclear Leukocyte Elastase (Homo sapiens, UniProt P08246)
# T1 construct: Crude extract of human polymorphonuclear leukocytes (PMN) containing elastase activity; from tissue; host or cells: human polymorphonuclear leukocytes (crude extract)
# T1 sequence (P08246 30-267): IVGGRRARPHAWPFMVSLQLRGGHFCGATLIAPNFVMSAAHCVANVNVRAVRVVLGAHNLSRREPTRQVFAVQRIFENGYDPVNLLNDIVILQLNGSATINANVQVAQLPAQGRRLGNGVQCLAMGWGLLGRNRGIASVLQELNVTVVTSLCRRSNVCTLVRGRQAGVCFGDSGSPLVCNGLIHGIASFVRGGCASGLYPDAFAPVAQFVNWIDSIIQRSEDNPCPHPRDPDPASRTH
# Assay: Enzyme assay for inhibition of human polymorphonuclear leukocyte elastase via hydrolysis of Boc-AAPAN or Boc-AAPVN
# Assay type: biochemical
# Conditions: pH 7.5, second order rate constant for inactivation of the enzyme, expressed to the nearest thousand, read-out: Kobs/[I]
# Procedure, shortened: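 Crude human PMN extract as enzyme source, with 0.2 mM Boc-AAPAN in 0.05M TES buffer pH 7.5. Inhibitors in DMSO were added to substrate before the extract, and rate was followed as ΔOD/min at 410 mµ. Values are kobs/I, the second-order inactivation rate constant (per mole per second).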
row,Structure (SMILES),kinact/KI [M⁻¹ s⁻¹]
1,CCC[C@@H](NC(=O)N1C(=O)C(CC)(CC)[C@@H]1Oc1ccc(C(=O)N(C)CCN(C)CC2CCCCO2)cc1)c1ccc(C)cc1 (some centres unmarked) [Compound 173],2.94e+06
2,CCC[C@@H](NC(=O)N1C(=O)C(CC)(CC)[C@@H]1Oc1ccc(C(=O)NC2CC(C)(C)NC(C)(C)C2)cc1)c1ccc(C)cc1 [Compound 174],869000
3,CCC[C@@H](NC(=O)N1C(=O)C(CC)(CC)[C@@H]1Oc1ccc(C(=O)N(C)c2ccc(C(=O)O)cc2)cc1)c1ccc(C)cc1 [Compound 175],1.06e+06
4,CCC[C@@H](NC(=O)N1C(=O)C(CC)(CC)[C@@H]1Oc1ccc(C(=O)N(C)c2ccc(C(=O)NS(=O)(=O)c3ccccc3)cc2)cc1)c1ccc(C)cc1 [Compound 176],3.23e+06
5,CCC[C@@H](NC(=O)N1C(=O)C(CC)(CC)[C@@H]1Oc1ccc(C(=O)N(C)CCN(C)Cc2ccc(C#N)cc2)cc1)c1ccc(C)cc1 [Compound 177],2.2e+06
6,CCC[C@@H](NC(=O)N1C(=O)C(CC)(CC)[C@@H]1Oc1ccc(C(=O)N(C)CCN(C)Cc2ccc(C)cc2)cc1)c1ccc(C)cc1 [Compound 178],1.87e+06
7,CCC[C@@H](NC(=O)N1C(=O)C(CC)(CC)[C@@H]1Oc1ccc(C(=O)N(C)CCN(C)Cc2cccc(C#N)c2)cc1)c1ccc(C)cc1 [Compound 179],2.45e+06
8,CCC[C@@H](NC(=O)N1C(=O)C(CC)(CC)[C@@H]1Oc1ccc(C(=O)N(C)CCN(C)Cc2ccc(C(F)(F)F)cc2)cc1)c1ccc(C)cc1 [Compound 180],905000
9,CCC[C@@H](NC(=O)N1C(=O)C(CC)(CC)[C@@H]1Oc1ccc(C(=O)N(C)CCN(C)Cc2cccc(C(F)(F)F)c2)cc1)c1ccc(C)cc1 [Compound 181],564000
10,CCC[C@@H](NC(=O)N1C(=O)C(CC)(CC)[C@@H]1Oc1ccc(C(=O)N(C)CCN(C)Cc2ccc(F)cc2)cc1)c1ccc(C)cc1 [Compound 182],2.14e+06
11,CCC[C@@H](NC(=O)N1C(=O)C(CC)(CC)[C@@H]1Oc1ccc(C(=O)NC(C)[PH](=O)O)cc1)c1ccc(C)cc1 (some centres unmarked) [Compound 183],977000
12,CCC[C@@H](NC(=O)N1C(=O)C(CC)(CC)[C@@H]1Oc1ccc(C(=O)N[C@@H](CCCCN)C(=O)O)cc1)c1ccc(C)cc1 [Compound 184],755000
13,CCC[C@@H](NC(=O)N1C(=O)C(CC)(CC)[C@@H]1Oc1ccc(C(=O)N(C)CCN(C)CC2CC2)cc1)c1ccc(C)cc1 [Compound 185],1.79e+06
14,CCC[C@@H](NC(=O)N1C(=O)C(CC)(CC)[C@@H]1Oc1ccc(C(=O)N(C)CC(c2ccccc2)N(C)C)cc1)c1ccc(C)cc1 (some centres unmarked) [Compound 186],1.05e+06
15,CCC[C@@H](NC(=O)N1C(=O)C(CC)(CC)[C@@H]1Oc1ccc(C(=O)N(C)C)cc1)c1ccc(C)cc1 [Compound 187],1.75e+06
16,CCC[C@@H](NC(=O)N1C(=O)C(CC)(CC)[C@@H]1Oc1ccc(C(=O)N(C)Cc2ccccc2)cc1)c1ccc(C)cc1 [Compound 188],1.84e+06
17,CCC[C@@H](NC(=O)N1C(=O)C(CC)(CC)[C@@H]1Oc1ccc(C(=O)N(C)C2CCCN(Cc3ccccc3)C2)cc1)c1ccc(C)cc1 (some centres unmarked) [Compound 189],1.88e+06
18,CCC[C@@H](NC(=O)N1C(=O)C(CC)(CC)[C@@H]1Oc1ccc(C(=O)NOCc2ccccc2)cc1)c1ccc(C)cc1 [Compound 190],1.8e+06
19,CCC[C@@H](NC(=O)N1C(=O)C(CC)(CC)[C@@H]1Oc1ccc(C(=O)N(CCN(C)Cc2ccccc2)Cc2cccnc2)cc1)c1ccc(C)cc1 [Compound 191],2.54e+06
20,CCC[C@@H](NC(=O)N1C(=O)C(CC)(CC)[C@@H]1Oc1ccc(C(=O)N(C)CCN(C)Cc2ccc(OC)cc2)cc1)c1ccc(C)cc1 [Compound 192],1.78e+06
21,CCC[C@@H](NC(=O)N1C(=O)C(CC)(CC)[C@@H]1Oc1ccc(C(=O)N(CCN(C)Cc2ccccc2)Cc2ccncc2)cc1)c1ccc(C)cc1 [Compound 193],2.24e+06
22,CCC[C@@H](NC(=O)N1C(=O)C(CC)(CC)[C@@H]1Oc1ccc(C(=O)N(CCN(C)Cc2ccccc2)Cc2ccccn2)cc1)c1ccc(C)cc1 [Compound 194],2.47e+06
23,CCC[C@@H](NC(=O)N1C(=O)C(CC)(CC)[C@@H]1Oc1ccc(C(=O)N(C)CCN(C)Cc2ccc(C)cc2C)cc1)c1ccc(C)cc1 [Compound 195],1.12e+06
24,CCC[C@@H](NC(=O)N1C(=O)C(CC)(CC)[C@@H]1Oc1ccc(C(=O)N(C)CCN2CC(C)OC(C)C2)cc1)c1ccc(C)cc1 (some centres unmarked) [Compound 196],1.53e+06
25,CCC[C@@H](NC(=O)N1C(=O)C(CC)(CC)[C@@H]1Oc1ccc(C(N)=O)cc1)c1ccc(C)cc1 [Compound 197],1.64e+06

# Results, then the compound that gave them:
row,kinact/KI [M⁻¹ s⁻¹],Structure (SMILES)
1,1.82e+06,CCC[C@@H](NC(=O)N1C(=O)C(CC)(CC)[C@@H]1Oc1ccc(C(=O)NC)cc1)c1ccc(C)cc1 [Compound 198]
2,2.38e+06,CCC[C@@H](NC(=O)N1C(=O)C(CC)(CC)[C@@H]1Oc1ccc(C(=O)N2CCOCC2)cc1)c1ccc(C)cc1 [Compound 199]
3,1.84e+06,CCC[C@@H](NC(=O)N1C(=O)C(CC)(CC)[C@@H]1Oc1ccc(C(=O)N2C[C@@H](C)O[C@@H](C)C2)cc1)c1ccc(C)cc1 [Compound 200]
4,2.46e+06,CCCCNC(=O)c1ccc(OC2N(C(=O)NC(CCC)c3ccc(C)cc3)C(=O)C2(CC)CC)cc1 (centres unmarked) [Compound 201]
5,1.76e+06,CCC[C@@H](NC(=O)N1C(=O)C(CC)(CC)[C@@H]1Oc1ccc(C(=O)N(C)CCN(C)C(=NC#N)Nc2ccccc2)cc1)c1ccc(C)cc1 [Compound 202]
6,1.26e+06,CCC[C@@H](NC(=O)N1C(=O)C(CC)(CC)[C@@H]1Oc1ccc(C(=O)N(C)CCN(C)Cc2cccc(F)c2)cc1)c1ccc(C)cc1 [Compound 203]
7,1.59e+06,CCC[C@@H](NC(=O)N1C(=O)C(CC)(CC)[C@@H]1Oc1ccc(C(=O)N(C)CCN(C)Cc2ccccc2Cl)cc1)c1ccc(C)cc1 [Compound 204]
8,1.91e+06,CCC[C@@H](NC(=O)N1C(=O)C(CC)(CC)[C@@H]1Oc1ccc(C(=O)N(C)CCN(C)Cc2cccc(OC)c2)cc1)c1ccc(C)cc1 [Compound 205]
9,1.74e+06,CCC[C@@H](NC(=O)N1C(=O)C(CC)(CC)[C@@H]1Oc1ccc(C(=O)N(C)CCN(C)Cc2cc(OC)cc(OC)c2)cc1)c1ccc(C)cc1 [Compound 206]
10,2.7e+06,CCC[C@@H](NC(=O)N1C(=O)C(CC)(CC)[C@@H]1Oc1ccc(C(=O)N2CCc3cc(OC)c(OC)cc3C2)cc1)c1ccc(C)cc1 [Compound 207]
11,1.95e+06,CCC[C@@H](NC(=O)N1C(=O)C(CC)(CC)[C@@H]1Oc1ccc(C(=O)N(C)C2CCN(Cc3ccccc3)CC2)cc1)c1ccc(C)cc1 [Compound 208]
12,929000,CCC[C@@H](NC(=O)N1C(=O)C(CC)(CC)[C@@H]1Oc1ccc(C(=O)NCCCC[C@H](N)C(=O)O)cc1)c1ccc(C)cc1 [Compound 209]
13,2.13e+06,CCC[C@@H](NC(=O)N1C(=O)C(CC)(CC)[C@@H]1Oc1ccc(C(=O)N(C)CCN(C)C2C3CC4CC(C3)CC2C4)cc1)c1ccc(C)cc1 (some centres unmarked) [Compound 210]
14,85000,CCC[C@@H](NC(=O)N1C(=O)C(CC)(CC)[C@@H]1Oc1ccc(C(=O)N(C)C2CCNCC2)cc1)c1ccc(C)cc1 [Compound 211]
15,860000,CCC[C@@H](NC(=O)N1C(=O)C(CC)(CC)[C@@H]1Oc1ccc(C(=O)N2CC3CC2CN3C)cc1)c1ccc(C)cc1 (some centres unmarked) [Compound 212]
16,984000,CCC[C@@H](NC(=O)N1C(=O)C(CC)(CC)[C@@H]1Oc1ccc(C(=O)N(C)CC(=O)O)cc1)c1ccc(C)cc1 [Compound 213]
17,1.1e+06,CCC[C@@H](NC(=O)N1C(=O)C(CC)(CC)[C@@H]1Oc1ccc(C(=O)N(C)CCCN(C)CC)cc1)c1ccc(C)cc1 [Compound 214]
18,1.28e+06,CCC[C@@H](NC(=O)N1C(=O)C(CC)(CC)[C@@H]1Oc1ccc(C(=O)N(C)C2CCN(C)CC2)cc1)c1ccc(C)cc1 [Compound 215]
19,1.31e+06,CCC[C@@H](NC(=O)N1C(=O)C(CC)(CC)[C@@H]1Oc1ccc(C(=O)N(C)C2CCN(CCC)CC2)cc1)c1ccc(C)cc1 [Compound 216]
20,1.42e+06,CCC[C@@H](NC(=O)N1C(=O)C(CC)(CC)[C@@H]1Oc1ccc(C(=O)N(C)C2CCN(CC)CC2)cc1)c1ccc(C)cc1 [Compound 217]
21,2.12e+06,CCC[C@@H](NC(=O)N1C(=O)C(CC)(CC)[C@@H]1Oc1ccc(C(=O)N(C)CC(C)N(C)Cc2ccccc2)cc1)c1ccc(C)cc1 (some centres unmarked) [Compound 218]
22,1.59e+06,CCC[C@@H](NC(=O)N1C(=O)C(CC)(CC)[C@@H]1Oc1ccc(C(=O)N(C)CC(C)N(C)C)cc1)c1ccc(C)cc1 (some centres unmarked) [Compound 219]
23,1.87e+06,CCC[C@@H](NC(=O)N1C(=O)C(CC)(CC)[C@@H]1Oc1ccc(C(=O)N(C)CCN(C)C2CC3CCC2C3)cc1)c1ccc(C)cc1 (some centres unmarked) [Compound 220]
24,3.01e+06,CCC[C@@H](NC(=O)N1C(=O)C(CC)(CC)[C@@H]1Oc1ccc(C(=O)N(C)CCNC2C3CC4CC(C3)CC2C4)cc1)c1ccc(C)cc1 (some centres unmarked) [Compound 221]
25,2.29e+06,CCC[C@@H](NC(=O)N1C(=O)C(CC)(CC)[C@@H]1Oc1ccc(C(=O)N(C)CCN(C)C2CCC3CC2C3(C)C)cc1)c1ccc(C)cc1 (some centres unmarked) [Compound 222]
26,2.58e+06,CCC[C@@H](NC(=O)N1C(=O)C(CC)(CC)[C@@H]1Oc1ccc(C(=O)N(C)CCN(C)C2CCC3CCC2C3)cc1)c1ccc(C)cc1 (some centres unmarked) [Compound 223]
27,1.84e+06,CCC[C@@H](NC(=O)N1C(=O)C(CC)(CC)[C@@H]1Oc1ccc(C(=O)N(C)CCN(C)C2=CCCCC2)cc1)c1ccc(C)cc1 [Compound 225]
28,1.31e+06,C=CC(C)(C)NCCN(C)C(=O)c1ccc(O[C@@H]2N(C(=O)N[C@H](CCC)c3ccc(C)cc3)C(=O)C2(CC)CC)cc1 [Compound 226]
